# Values of other authors as cited in patent publication US20170166879A1, “NOVEL (R)-HYDROXYNITRILE LYASE” (PUBLIC UNIVERSITY CORPORATION TOYAMA PREFECTURAL UNIVERSITY, priority 2014, published 2017).
# Test system: S-HNL derived from Baliospermum
# Conditions: cited from earlier work
smiles,measurement,value
N.N#CS [ammonium thiocyanate],inhibition of S-HNL,strongly inhibits
